Values quoted from earlier work, collected in US20220370398A1, “METHOD TO DESTABALIZE CYSTEINE EXPOSED INFECTIOUS INFORMATION VECTORS” (priority 2021, published 2022).

Assays:
bacterial infection = conditions: in vitro, as a vapor
[1] = in 40% aqueous ethanol solution

In the case of `C=CCS[S+]([O-])CC=C` (centres unmarked) [2PSP, 2-Propene-1-sulfinothioic acid S-2-propenyl ester], the vapor antimicrobial effect (bacterial infection) is given as “inhibits bacterial infection” and the solubility [1] is given as ~20%.
